Here are results for one molecule from patent US9393198B2 (SIGNPATH PHARMA INC., priority 2010, dated 2016).

The nature of data set [1]: Brain tissue and plasma curcumin levels in rats after intravenous bolus injection (HPLC). The format is in vivo, Sprague-Dawley rats. Particulars: intravenous curcumin formulations.
In data set [2] the test system is murine multipotent neural progenitor cells (NPC). Particulars: cited from earlier work.
Data set [3] deals with chronic unpredictable mild stress (CUMS). Particulars: CUMS rats; cited from earlier work.
For data set [4], the system named is Alzheimer's Disease mice (ALCL3 orally and D-galactose IP for 90 days). The settings on record: cited from earlier work.
For the next data set, the system named is PC12 cells. The settings on record: cultured PC12 cells; cited from earlier work.
In data set [5] the test system is sodium arsenite neuro-behavioral neurotransmission toxicity. The settings on record: rats, arsenite 20 mg/kg for 28 days; oral curcumin 100 mg/kg daily × 28 days; cited from earlier work.
In data set [6] the test system is homocysteine directly injected into the hippocampus. Particulars: intraperitoneal curcumin; cited from earlier work.
For the next data set, the system named is 6-OHDA toxicity. The settings on record: rat; cited from earlier work.

For the molecule `COc1cc(C=CC(=O)CC(=O)C=Cc2ccc(O)c(OC)c2)ccc1O` [curcumin, 1,7-bis(4-hydroxy-3-methoxyphenyl)-1,6-heptadiene-3,5-dione], the “Curcumin detectible in the hippocampus, brainstem and striatum, share of dose” value in data set [1] was “less than 0.5 % of the total injected dose”. Moreover, in data set [2], the “Concentration that decreases proliferation of NPCs and cancer cells” value is > 10 µM. The “Concentration that inhibits neurogenesis and neuroplasticity” value in data set [2] (hippocampus stem and neuronal progenitor cells, high concentration) was 10 µM. In addition, in data set [2] (hippocampus stem and neuronal progenitor cells, low concentration), the “Concentration that enhances / stimulates hippocampal neurogenesis” value is listed as 500 nM. Also, in data set [2] (×24-48 h, NPC but not tumor cells), the “Concentration that increases NPC proliferation” value was 0.1 to 0.5 µM. Also, the “Effect on chronic unpredictable mild stress (CUMS)” value in data set [3] is on record as “improves chronic unpredictable mild stress”. Further, the “Memory ability, step-through test” value in data set [4] is reported as “improves the memory ability”. Also, the “Apoptosis induced by AlCl3” value in the data set with PC12 cells is “inhibits apoptosis”. The “Effect on arsenite-induced deleterious effects” value in data set [5] is listed as “counteracted”. Moreover, in data set [6], the “Activity against homocysteine injected into the hippocampus” value was “neuroprotective activity”. Moreover, in the data set with 6-OHDA toxicity, the “Effect on 6-OHDA toxicity in striatum and Substantia Nigrum” value was “protects”.
